Experimental data taken from patent US6515103B1 (priority 1996, dated 2003).
Where a SMILES comes first, the peptide text is derived from it. [ ]: non-standard residue; d: D form. Gla = N[C@@H](CC(C(=O)O)C(=O)O)C(=O)O

How the values were obtained:
[1] = in vitro; details: Frings audiogenic, mouse
[2] = target: NMDA receptor; assay type: binding

Compound | half-life ([1]; brain homogenate) [min] | half-life ([1]; tissue homogenate) [min] | IC50 [2] [nM]
CC[C@H](C)[C@H](NC(=O)[C@H](CC(C)C)NC(=O)[C@H](CCC(=O)O)NC(=O)[C@H](CCC(N)=O)NC(=O)[C@H](CC(N)=O)NC(=O)[C@H](CCC(=O)O)NC(=O)[C@H](CCC(N)=O)NC(=O)[C@H](CC(C)C)NC(=O)[C@H](CCC(=O)O)NC(=O)[C@H](CCC(=O)O)NC(=O)[C@H](CCC(=O)O)NC(=O)CN)C(=O)N[C@@H](CCCNC(=N)N)C(=O)N[C@@H](CCC(=O)O)C(=O)N[C@@H](CCCCN)C(=O)N[C@@H](CO)C(=O)N[C@@H](CC(N)=O)C(N)=O [ECon G] | 1.6 | 0.425 | –
CC[C@H](C)[C@H](NC(=O)[C@H](CC(C)C)NC(=O)[C@H](Cc1ccc(O)cc1)NC(=O)[C@H](CCC(N)=O)NC(=O)[C@H](CC(N)=O)NC(=O)[C@H](C)NC(=O)[C@H](CCC(N)=O)NC(=O)[C@H](CC(C)C)NC(=O)[C@H](CC(C(=O)O)C(=O)O)NC(=O)[C@H](CC(C(=O)O)C(=O)O)NC(=O)[C@H](CCC(=O)O)NC(=O)CN)C(=O)N[C@@H](CCCNC(=N)N)C(=O)N[C@@H](CC(C(=O)O)C(=O)O)C(=O)N[C@@H](CCCCN)C(=O)N[C@@H](CO)C(=O)N[C@@H](CC(N)=O)C(N)=O [A^7,Y^10] (H-GE[Gla][Gla]LQANQYLIR[Gla]KSN-NH2; N-terminus assumed) | – | – | 79
CC[C@H](C)[C@H](NC(=O)[C@H](CC(C)C)NC(=O)[C@H](CC(C(=O)O)C(=O)O)NC(=O)[C@H](CCC(N)=O)NC(=O)[C@H](CC(N)=O)NC(=O)[C@H](CC(C(=O)O)C(=O)O)NC(=O)[C@H](CCC(N)=O)NC(=O)[C@H](CC(C)C)NC(=O)[C@H](CCC(=O)O)NC(=O)[C@H](CC(C(=O)O)C(=O)O)NC(=O)[C@H](CCC(=O)O)NC(=O)CN)C(=O)N[C@@H](CCCNC(=N)N)C(=O)N[C@@H](CC(C(=O)O)C(=O)O)C(=O)N[C@@H](CCCCN)C(=O)N[C@@H](CO)C(=O)N[C@@H](CC(N)=O)C(N)=O [E^4] | – | – | ≥ 20000
CC[C@H](C)[C@H](NC(=O)[C@H](CC(C)C)NC(=O)[C@H](C)NC(=O)[C@H](CCC(N)=O)NC(=O)[C@H](CC(N)=O)NC(=O)[C@H](C)NC(=O)[C@H](CCC(N)=O)NC(=O)[C@H](CC(C)C)NC(=O)[C@H](CC(C(=O)O)C(=O)O)NC(=O)[C@H](CC(C(=O)O)C(=O)O)NC(=O)[C@H](CCC(=O)O)NC(=O)CN)C(N)=O [(A^7,10)1-12] (H-GE[Gla][Gla]LQANQALI-NH2; N-terminus assumed) | – | – | 300
CC[C@H](C)[C@H](NC(=O)[C@H](CC(C)C)NC(=O)[C@H](C)NC(=O)[C@H](CCC(N)=O)NC(=O)[C@H](CC(N)=O)NC(=O)[C@H](C)NC(=O)[C@H](CCC(N)=O)NC(=O)[C@H](CC(C)C)NC(=O)[C@H](CC(C(=O)O)C(=O)O)NC(=O)[C@H](CC(C(=O)O)C(=O)O)NC(=O)[C@H](CCC(=O)O)NC(=O)CN)C(=O)N[C@@H](CCCNC(=N)N)C(N)=O [(A^7,10)1-13] (H-GE[Gla][Gla]LQANQALIR-NH2; N-terminus assumed) | – | – | 253
